Assay results reported in ChEMBL document CHEMBL1201862, “PubChem BioAssay data set” (2004).
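In this assay, cells in 96-well plates receive the compound at five concentrations for 48 hours. Endpoints are linearly interpolated between the surrounding concentrations. Here, GI50 denotes the concentration required for 50% inhibition of growth.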 Activity calls are given as the source filed them. Rule as the data show it: active = GI50 up to about 1.1 µM and inactive = higher. Square brackets hold non-standard residues; d marks the D form. Peptide text beside a SMILES is read from it. pGlu = O=C1CC[CH](C(=O)O)N1

How the values were obtained:
Test in all cases: NCI-60 cell line screen, 48 h
MOLT-4 = system: MOLT-4
HL-60 = system: HL-60
UO-31 = system: UO-31
TK-10 = system: TK-10
DU-145 = system: DU-145
K562 = system: K562
OVCAR-5 = system: OVCAR-5
A498 = system: A498
NCI/ADR-RES = system: NCI/ADR-RES
T47D = system: T47D
SF-539 = system: SF-539
SF-295 = system: SF-295
MDA-MB-231 = system: MDA-MB-231
LOX IMVI = system: LOX IMVI
RPMI-8226 = system: RPMI-8226
SNB-19 = system: SNB-19
SK-MEL-2 = system: SK-MEL-2
NCI-H460 = system: NCI-H460
SNB-75 = system: SNB-75
NCI-H226 = system: NCI-H226

Row | Compound | GI50 (MOLT-4) | GI50 (HL-60) | GI50 (UO-31) | GI50 (TK-10) | GI50 (DU-145) | GI50 (K562) | GI50 (OVCAR-5) | GI50 (A498) | GI50 (NCI/ADR-RES) | GI50 (T47D) | GI50 (SF-539) | GI50 (SF-295) | GI50 (MDA-MB-231) | GI50 (LOX IMVI) | GI50 (RPMI-8226) | GI50 (SNB-19) | GI50 (SK-MEL-2) | GI50 (NCI-H460) | GI50 (SNB-75) | GI50 (NCI-H226)
1 | O=C(c1ccco1)N(C(=S)OCCOc1ccccc1)c1ccccc1 | 23.8 µM (inactive) | 24.3 µM (inactive) | 15.7 µM (inactive) | 20.9 µM (inactive) | 20.3 µM (inactive) | 28.4 µM (inactive) | 19.2 µM (inactive) | 16 µM (inactive) | 25.7 µM (inactive) | 20.5 µM (inactive) | 22.9 µM (inactive) | 16.2 µM (inactive) | 16.4 µM (inactive) | 19.3 µM (inactive) | 19.8 µM (inactive) | 26.7 µM (inactive) | 19.6 µM (inactive) | 21.9 µM (inactive) |  | 
2 | Cc1ccc(/C=c2\cc3oc(=O)c4cccc(c4-3)c2=O)cc1 | > 10 µM (inactive) | 39.1 µM (inactive) | > 100 µM (inactive) | > 100 µM (inactive) | > 100 µM (inactive) | 33.3 µM (inactive) | > 100 µM (inactive) | > 100 µM (inactive) | > 100 µM (inactive) | > 100 µM (inactive) | > 100 µM (inactive) | > 100 µM (inactive) | > 100 µM (inactive) | 61.4 µM (inactive) | 31.2 µM (inactive) | > 100 µM (inactive) | > 100 µM (inactive) | > 100 µM (inactive) | > 100 µM (inactive) | 
3 | O=C1CSCc2sccc21 | > 100 µM (inactive) | > 100 µM (inactive) | > 100 µM (inactive) | > 100 µM (inactive) | > 100 µM (inactive) | > 100 µM (inactive) | > 100 µM (inactive) | > 100 µM (inactive) | > 100 µM (inactive) | > 100 µM (inactive) | > 100 µM (inactive) | > 100 µM (inactive) | > 100 µM (inactive) |  |  | > 100 µM (inactive) | > 100 µM (inactive) | > 100 µM (inactive) | 52.8 µM (inactive) | > 100 µM (inactive)
4 | Cc1ccc([N+](=O)[O-])cc1S(=O)(=O)Nc1ccc(C2=NN(c3ccc([N+](=O)[O-])cc3[N+](=O)[O-])C(c3cccs3)C2)cc1 (stereo not drawn) | 13.9 µM (inactive) | 23.1 µM (inactive) | 23.8 µM (inactive) | 30 µM (inactive) | 25.8 µM (inactive) | 17.2 µM (inactive) | 43.9 µM (inactive) |  | 17.2 µM (inactive) | 16.9 µM (inactive) | 27 µM (inactive) | 25.6 µM (inactive) | 15 µM (inactive) | 18.3 µM (inactive) | 10.9 µM (inactive) | 27.9 µM (inactive) | 12.1 µM (inactive) |  | 19.5 µM (inactive) | 22.2 µM (inactive)
5 | O=C1c2ccccc2CC12Cc1cc3c(cc1C2=O)CCC3 (stereo not drawn) | > 100 µM (inactive) | > 100 µM (inactive) | > 100 µM (inactive) | > 100 µM (inactive) | > 100 µM (inactive) | > 100 µM (inactive) | > 100 µM (inactive) | > 100 µM (inactive) | > 100 µM (inactive) | > 100 µM (inactive) | > 100 µM (inactive) | > 100 µM (inactive) | > 100 µM (inactive) | > 100 µM (inactive) | 43.6 µM (inactive) | > 100 µM (inactive) | > 100 µM (inactive) | > 100 µM (inactive) | > 100 µM (inactive) | 
6 | COc1ccc(-c2c3c(n(C4OC(COC(C)=O)C(OC(C)=O)C(OC(C)=O)C4OC(C)=O)c(=S)c2C#N)CCCC3)cc1 (stereo not drawn) | 27.6 µM (inactive) | 62.5 µM (inactive) | 64.7 µM (inactive) | > 100 µM (inactive) | 44.9 µM (inactive) | 65.6 µM (inactive) | > 100 µM (inactive) | 15.2 µM (inactive) | 54.1 µM (inactive) | 34.3 µM (inactive) | 69.5 µM (inactive) | > 100 µM (inactive) | 55.8 µM (inactive) | > 100 µM (inactive) |  | 24.7 µM (inactive) | 16.2 µM (inactive) | 39.8 µM (inactive) | 16.4 µM (inactive) | > 100 µM (inactive)
7 | Cc1cc(=O)oc2c(CNC(CC(C)C)C(=O)O)c(O)ccc12 (stereo not drawn) | > 100 µM (inactive) | > 100 µM (inactive) | > 100 µM (inactive) | > 100 µM (inactive) | > 100 µM (inactive) | > 100 µM (inactive) | > 100 µM (inactive) |  | > 100 µM (inactive) | > 100 µM (inactive) | > 100 µM (inactive) | > 100 µM (inactive) | > 100 µM (inactive) | > 100 µM (inactive) | > 100 µM (inactive) | > 100 µM (inactive) | > 100 µM (inactive) | > 100 µM (inactive) | 39.7 µM (inactive) | > 100 µM (inactive)
8 | C/C=C(/C)C(=O)O[C@H]1C(C)=C[C@]23C(=O)[C@@H](C=C(COC(C)=O)[C@@H](O)[C@]12O)[C@H]1[C@@H](C[C@H]3C)[C@@]1(C)OC(=O)/C(C)=C\C | 0.0449 µM (active) | 0.094 µM (active) | 0.442 µM (active) | 2.72 µM (inactive) | 2.23 µM (inactive) | 0.0205 µM (active) | 3.15 µM (inactive) | 2.72 µM (inactive) | 2.65 µM (inactive) | 1.22 µM (inactive) | 2.81 µM (inactive) | 1.08 µM (active) | 3.03 µM (inactive) | 3.1 µM (inactive) |  | 3.01 µM (inactive) | 3 µM (inactive) | 0.0244 µM (active) | 1.52 µM (inactive) | 3.07 µM (inactive)
9 | COC(=O)c1ccc(/C=C(\c2ccc([N+](=O)[O-])o2)S(=O)(=O)c2ccc(NC(C)=O)cc2)o1 | 2.83 µM (inactive) | 3.03 µM (inactive) | 4.49 µM (inactive) | 4.97 µM (inactive) | 10.1 µM (inactive) | 4.15 µM (inactive) | 3.8 µM (inactive) |  | 14.2 µM (inactive) | 18.4 µM (inactive) | 4.2 µM (inactive) | 17.5 µM (inactive) | 2.01 µM (inactive) |  | 1.22 µM (inactive) | 16.9 µM (inactive) | 15.9 µM (inactive) | 18.5 µM (inactive) | 19.3 µM (inactive) | 3.04 µM (inactive)
10 | NC(=O)C1N=NSC1NC(=O)c1ccc([N+](=O)[O-])cc1 (stereo not drawn) | 49.2 µM (inactive) |  | 40.6 µM (inactive) | 54.8 µM (inactive) | 78.5 µM (inactive) | 62.7 µM (inactive) | > 100 µM (inactive) |  | 36.6 µM (inactive) | 26.3 µM (inactive) |  | 32.2 µM (inactive) | 52.2 µM (inactive) |  | 26.4 µM (inactive) | 50.6 µM (inactive) | 13.5 µM (inactive) | 34.4 µM (inactive) | 67.3 µM (inactive) | 54.8 µM (inactive)
11 | O=C(O)CSc1nnc(COc2ccc(Cl)cc2)n1-c1ccccc1 | > 100 µM (inactive) | > 100 µM (inactive) | > 100 µM (inactive) | > 100 µM (inactive) | > 100 µM (inactive) | > 100 µM (inactive) | > 100 µM (inactive) | > 100 µM (inactive) | > 100 µM (inactive) | > 100 µM (inactive) |  | > 100 µM (inactive) | > 100 µM (inactive) | > 100 µM (inactive) |  | > 100 µM (inactive) | > 100 µM (inactive) | > 100 µM (inactive) | > 100 µM (inactive) | > 100 µM (inactive)
12 | COc1ccc(CC2c3cc(OC)c(OC)c(OC)c3CC[N+]2(C)C)cc1Oc1ccc(CC2c3cc4c(c(OC)c3CC[N+]2(C)C)OCO4)cc1 (stereo not drawn) | > 100 µM (inactive) | > 100 µM (inactive) | > 100 µM (inactive) | > 100 µM (inactive) | > 100 µM (inactive) | > 100 µM (inactive) | > 100 µM (inactive) | > 100 µM (inactive) | > 100 µM (inactive) | > 100 µM (inactive) |  | > 100 µM (inactive) | > 100 µM (inactive) | > 100 µM (inactive) |  | > 100 µM (inactive) | > 100 µM (inactive) | > 100 µM (inactive) | 91.6 µM (inactive) | > 100 µM (inactive)
13 | CC(NC(=O)C(Cc1c[nH]cn1)NC(=O)C1CCC(=O)N1)C(N)=O (stereo not drawn) ([pGlu]-His-Ala-NH2; configuration not given here) | > 100 µM (inactive) | > 100 µM (inactive) | > 100 µM (inactive) | > 100 µM (inactive) | > 100 µM (inactive) | > 100 µM (inactive) | > 100 µM (inactive) |  | > 10 µM (inactive) | > 100 µM (inactive) |  | > 100 µM (inactive) | > 100 µM (inactive) | > 100 µM (inactive) | > 100 µM (inactive) | > 100 µM (inactive) |  | > 100 µM (inactive) | > 100 µM (inactive) | > 100 µM (inactive)
14 | Cc1[nH]c(/C=C2\C(=O)Nc3ccccc32)c(C)c1CCC(=O)O [ORANTINIB] | 30.1 µM (inactive) |  | 32.7 µM (inactive) | 42.5 µM (inactive) | 31.5 µM (inactive) | 36.4 µM (inactive) | 27.5 µM (inactive) | 55 µM (inactive) | 37.3 µM (inactive) | 34.1 µM (inactive) |  | 32.5 µM (inactive) | 37.9 µM (inactive) | 28.4 µM (inactive) | 22.8 µM (inactive) | 53.5 µM (inactive) | 16.8 µM (inactive) | 31 µM (inactive) | 12.6 µM (inactive) | 
